Source: the supplement of paper PMC11451515

Tested on: NOMO1
Assay: cell viability relative to DMSO control; higher = less cytotoxic
Details: 48 h
In short: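 Before seeding, each leukemia line was adapted for at least four passages in each medium. NOMO1 or SEM cells (500 cells/well) and P12-Ichikawa cells (1000 cells/well) went into 1536-well plates at 5 μl, then received library compounds in DMSO by pin dosing across 11 threefold concentrations, 47 μM to 0.79 nM. Readout was CellTiter-Glo One luminescence after 48 h at 37°C, and viability is given as a per-plate percentage of DMSO wells, with cell-free wells as background.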

[1] = HPLM + 10% dialyzed FBS, 0.000781 µM
[2] = HPLM + 10% dialyzed FBS, 0.00234 µM
[3] = HPLM + 10% dialyzed FBS, 0.00702 µM
[4] = HPLM + 10% dialyzed FBS, 0.0211 µM
[5] = HPLM + 10% dialyzed FBS, 0.0632 µM
[6] = HPLM + 10% dialyzed FBS, 0.19 µM
[7] = HPLM + 10% dialyzed FBS, 0.569 µM
[8] = HPLM + 10% dialyzed FBS, 1.71 µM
[9] = HPLM + 10% dialyzed FBS, 5.12 µM
[10] = HPLM + 10% dialyzed FBS, 15.4 µM
[11] = HPLM + 10% dialyzed FBS, 46.1 µM
[12] = RPMI 5 mM glucose + 10% FBS, 0.000781 µM
[13] = RPMI 5 mM glucose + 10% FBS, 0.00234 µM
[14] = RPMI 5 mM glucose + 10% FBS, 0.00702 µM
[15] = RPMI 5 mM glucose + 10% FBS, 0.0211 µM
[16] = RPMI 5 mM glucose + 10% FBS, 0.0632 µM
[17] = RPMI 5 mM glucose + 10% FBS, 0.19 µM
[18] = RPMI 5 mM glucose + 10% FBS, 0.569 µM
[19] = RPMI 5 mM glucose + 10% FBS, 1.71 µM
[20] = RPMI 5 mM glucose + 10% FBS, 5.12 µM
[21] = RPMI 5 mM glucose + 10% FBS, 15.4 µM
[22] = RPMI 5 mM glucose + 10% FBS, 46.1 µM
[23] = RPMI 5 mM glucose + 10% dialyzed FBS, 0.000781 µM
[24] = RPMI 5 mM glucose + 10% dialyzed FBS, 0.00234 µM
[25] = RPMI 5 mM glucose + 10% dialyzed FBS, 0.00702 µM
[26] = RPMI 5 mM glucose + 10% dialyzed FBS, 0.0211 µM
[27] = RPMI 5 mM glucose + 10% dialyzed FBS, 0.0632 µM
[28] = RPMI 5 mM glucose + 10% dialyzed FBS, 0.19 µM
[29] = RPMI 5 mM glucose + 10% dialyzed FBS, 0.569 µM
[30] = RPMI 5 mM glucose + 10% dialyzed FBS, 1.71 µM
[31] = RPMI 5 mM glucose + 10% dialyzed FBS, 5.12 µM
[32] = RPMI 5 mM glucose + 10% dialyzed FBS, 15.4 µM
[33] = RPMI 5 mM glucose + 10% dialyzed FBS, 46.1 µM

Compound | cell viability [1] [%] | cell viability [2] [%] | cell viability [3] [%] | cell viability [4] [%] | cell viability [5] [%] | cell viability [6] [%] | cell viability [7] [%] | cell viability [8] [%] | cell viability [9] [%] | cell viability [10] [%] | cell viability [11] [%] | cell viability [12] [%] | cell viability [13] [%] | cell viability [14] [%] | cell viability [15] [%] | cell viability [16] [%] | cell viability [17] [%] | cell viability [18] [%] | cell viability [19] [%] | cell viability [20] [%] | cell viability [21] [%] | cell viability [22] [%] | cell viability [23] [%] | cell viability [24] [%] | cell viability [25] [%] | cell viability [26] [%] | cell viability [27] [%] | cell viability [28] [%] | cell viability [29] [%] | cell viability [30] [%] | cell viability [31] [%] | cell viability [32] [%] | cell viability [33] [%]
CCCCCN(CCC12CC3CC(CC(C3)C1)C2)C(=O)NCCCc1ccncc1 | 111 | 120 | 116 | 114 | 115 | 109 | 108 | 93.7 | 111 | 112 | 97.3 | 98.2 | 110 | 107 | 110 | 116 | 113 | 97.8 | 113 | 96.5 | 107 | 98.4 | 104 | 102 | 119 | 120 | 116 | 107 | 116 | 111 | 116 | 94.1 | 99.1
Cc1c(C(=O)c2cccc3ccccc23)c2cccc3c2n1[C@H](CN1CCOCC1)CO3 | 104 | 100 | 94.2 | 101 | 99.9 | 91 | 89.5 | 86.9 | 97.9 | 86.1 | 5.74 | 91.4 | 83.8 | 87.4 | 87.8 | 96.7 | 94.4 | 86.4 | 91 | 88.7 | 81.4 | 4.88 | 84.2 | 90 | 86.3 | 86.9 | 95.8 | 85.5 | 85.4 | 88.1 | 87.5 | 77.7 | 5.16
CC(C)(Sc1ccc(CCN(CCCCC2CCCCC2)C(=O)NC2CCCCC2)cc1)C(=O)O | 107 | 120 | 101 | 111 | 109 | 109 | 118 | 108 | 101 | 114 | 101 | 102 | 120 | 113 | 110 | 120 | 120 | 107 | 118 | 98 | 95.6 | 118 | 106 | 102 | 102 | 114 | 113 | 104 | 112 | 108 | 93.7 | 114 | 98.8
Nc1nc(NCCNc2ncc(-n3ccnc3)c(-c3ccc(Cl)cc3Cl)n2)ccc1[N+](=O)[O-] |  |  |  |  |  |  |  |  |  |  |  | 105 | 124 | 126 | 128 | 127 | 141 | 144 | 157 | 141 | 151 | 165 | 92.9 | 128 | 119 | 136 | 155 | 160 | 139 | 147 | 168 | 147 | 150
CCOC(=O)N[C@@H]1CC[C@@H]2[C@@H](C1)C[C@H]1C(=O)O[C@H](C)[C@H]1[C@H]2/C=C/c1ccc(-c2cccc(F)c2)cn1 |  |  |  |  |  |  |  |  |  |  |  | 114 | 115 | 122 | 128 | 127 | 121 | 120 | 131 | 127 | 142 | 79 | 125 | 112 | 122 | 109 | 115 | 118 | 133 | 129 | 131 | 125 | 76.8
C1COC(NC(C2CC2)C2CC2)=N1 | 73.1 | 94 | 93 | 90.6 | 92.3 | 83.5 | 97.3 | 95.5 | 94.8 | 96.3 | 64.8 | 75.3 | 92.5 | 79.2 | 87.6 | 89.7 | 90.8 | 89.5 | 80.1 | 90.7 | 91.1 | 84.5 | 79.2 | 86.1 | 83.9 | 85 | 86.4 | 94.1 | 97.6 | 81.4 | 82.7 | 89.2 | 73
Nc1nc(N)c(N=O)c(OCC2CCCCC2)n1 | 89.8 | 104 | 90.2 | 116 | 94.5 | 99 | 99.5 | 62.5 | 46.9 | 38.9 | 23.4 | 90.3 | 90.2 | 93 | 93.5 | 87.9 | 94 | 91.8 | 76.9 | 61.6 | 48 | 28.2 | 76.6 | 91.8 | 78.8 | 87.9 | 97.9 | 96.9 | 91.2 | 76.8 | 66.8 | 60.4 | 33.8
CN1CCC(CC1)=C2C3=C(C=CC=C3)\C=C/C4=C2C=CC=C4 | 98.6 | 118 | 113 | 130 | 133 | 141 | 147 | 133 | 121 | 124 | 93.4 |  |  |  |  |  |  |  |  |  |  |  |  |  |  |  |  |  |  |  |  |  | 
Oc1ccc2ccccc2c1SSc1c(O)ccc2ccccc12 | 94.5 | 101 | 101 | 126 | 124 | 135 | 111 | 125 | 114 | 92.8 | 103 | 98.9 | 94.4 | 111 | 119 | 108 | 109 | 110 | 107 | 96.9 | 104 | 96.4 | 85.3 | 93.9 | 117 | 116 | 105 | 105 | 109 | 105 | 96.3 | 100 | 78.9
CC(C)c1c(C(=O)Nc2ccccc2)c(-c2ccccc2)c(-c2ccc(F)cc2)n1CC[C@@H](O)C[C@@H](O)CC(=O)[O-] | 109 | 108 | 118 | 112 | 94.4 | 97.4 | 100 | 97.2 | 88.4 | 75.6 | 52.4 | 96.4 | 91.3 | 94.6 | 90.8 | 88.2 | 116 | 97.6 | 80.1 | 83.7 | 83.5 | 61.5 | 90.4 | 100 | 90.9 | 89.6 | 102 | 103 | 92.2 | 77.9 | 73.9 | 67.3 | 48.4
Cc1nc(N)ncc1-c1nc(N2CCOCC2)c2sc(C(C)(C)O)cc2n1 |  |  |  |  |  |  |  |  |  |  |  | 109 | 118 | 113 | 117 | 106 | 64 | 18.7 | 18.5 | 10.5 | 9.97 | 9.89 | 114 | 113 | 94.2 | 111 | 89.5 | 86.4 | 28.1 | 22.6 | 13.3 | 11.4 | 7.33
CC[C@H]1CN2CCc3cc(OC)c(OC)cc3[C@@H]2C[C@@H]1C[C@H]1NCCc2cc(OC)c(OC)cc21 | 95.5 | 105 | 101 | 107 | 104 | 98.5 | 54.7 | 22.7 | 8.84 | 10.8 | 7.47 | 103 | 127 | 122 | 109 | 121 | 111 | 50.4 | 27 | 11.4 | 9.75 | 8.48 | 106 | 102 | 98.3 | 123 | 118 | 109 | 47.5 | 27.8 | 14.9 | 9.41 | 8.82
C[N]1N=CC=C1C/2=C(\C)N(C(=O)C(=C2)/C(=O)NCC3=NC=C(C=C3)[S+](C)([O-])=O)C4=CC=CC(=C4)C(F)(F)F |  |  |  |  |  |  |  |  |  |  |  | 105 | 127 | 98.9 | 107 | 118 | 102 | 102 | 97.5 | 100 | 96.2 | 93.5 | 99 | 106 | 101 | 113 | 111 | 123 | 95.7 | 79.7 | 79.7 | 90.1 | 103
Nc1ccc([S+](=O)([O-])Nc2ncccn2)cc1 | 115 | 121 | 130 | 126 | 136 | 127 | 129 | 138 | 142 | 129 | 120 |  |  |  |  |  |  |  |  |  |  |  |  |  |  |  |  |  |  |  |  |  | 
COc1cc(OC)c(C(=O)CCCN2CCCC2)c(OC)c1 |  |  |  |  |  |  |  |  |  |  |  | 132 | 125 | 122 | 127 | 127 | 116 | 120 | 108 | 119 | 98.4 | 106 |  |  |  |  |  |  |  |  |  |  | 
N#Cc1ccnc(N2C(=O)CC[C@H]2C(=O)N(c2cncc(F)c2)[C@H](C(=O)NC2CC(F)(F)C2)c2ccccc2Cl)c1 | 90.6 | 92.3 | 96.6 | 114 | 101 | 115 | 67.7 | 49 | 19.6 | 26.2 | 30.7 | 93.2 | 95.6 | 116 | 95.1 | 90.1 | 92 | 94.6 | 79.2 | 16.8 | 16.5 | 14.5 | 97.2 | 97.1 | 96.4 | 101 | 97.6 | 90.7 | 94.8 | 88.2 | 42.2 | 32.1 | 18.8
CC(C)(O)C(=O)Nc1ccc([N+](=O)[O-])c(C(F)(F)F)c1 | 94.7 | 116 | 131 | 124 | 122 | 135 | 126 | 65.8 | 38 | 30.6 | 30.5 | 118 | 123 | 124 | 122 | 120 | 132 | 125 | 51.1 | 29 | 24.1 | 25.7 |  |  |  |  |  |  |  |  |  |  | 
O=[S+]([O-])(NCCNC/C=C/c1ccc(Br)cc1)c1cccc2cnccc12 | 110 | 114 | 109 | 81.5 | 101 | 105 | 104 | 97.5 | 95.4 | 79.3 | 69.5 | 98.4 | 88.6 | 92.8 | 105 | 91.3 | 97.6 | 96.1 | 98.8 | 84 | 87.5 | 85.6 | 103 | 100 | 90.7 | 78.4 | 97.6 | 89.9 | 89.1 | 85.3 | 89.7 | 74.3 | 81.7
NCCc1ccc(O)c(O)c1 | 118 | 124 | 123 | 119 | 131 | 112 | 131 | 125 | 104 | 27.5 | 7.83 | 120 | 112 | 115 | 127 | 121 | 124 | 113 | 110 | 110 | 54.3 | 14 |  |  |  |  |  |  |  |  |  |  | 
